Measurements published in USRE46856E1, “Substituted 2,3-dihydroimidazo[1,2-c]quinazoline derivatives useful for treating hyper-proliferative disorders and diseases associated with angiogenesis” (Bayer Intellectual Property GmbH, priority 2006, dated 2018).
pIC50: −log10 of the molar value. Counter-ions that a name gives are not always drawn.

The compounds below were run on IGF-1 induced AKT phosphorylation in A549 cells (assay: IGF-1 induced AKT phosphorylation assay (A549 cell assay)). Details: Homo sapiens; A549 cells, 25 ng/ml IGF-1, phospho-AKT(Ser 473); read-out: average IC50 in the A549 cell assay.
Format: cell-based
Text: [Determination of IC50 Values of Compounds in Cell Based Assays of PI3K Activity] 96-well collagen treated clear bottom/black sided Costar plates were purchased from CORNING LIFE SCIENCES (Corning, N.Y.; at.#3904). Gibco RPMI medium (Cat.#11875), Biosource anti-phospho-AKT([…]) antibody (Cat.#44-621G) and recombinant IGF-1 (Cat.#PHG0074) were purchased from INVITROGEN (Carlsbad, Calif.). The secondary donkey anti-rabbit IgG horse radish peroxidase conjugate (Cat. #N[…]) and ECL chemiluminesence reagent (Cat.#RPN2209) were purchased from […] (Buckinghamshire, UK). Cell culture tested bovine serum albumin solution (35% in DPBS; Cat.#A7979) and all other chemicals were purchased from SIGMA (St. Louis, Mo.). The Wallac Victor2 1420 Multilabel HTS Counter was purchased from […] (Wellesley, Mass.) […] All wells (except no IGF-1 controls) were then treated with 25 ng/ml IGF-1 for 10 minutes at 37° C. in a 5% CO2 incubator. Following removal of the supernatants and washing with the wells with TBS (50 mM Tris pH 8.0 containing 138 mM NaCL and 27 mM KCl), 200 µL of 3.7% formaldehyde in TBS was added to each well, and the plate was incubated at 4° C. for 10 minutes. Supernatants were once again removed and replaced with 50 μL Methanol (-20° C.) and the plate incubated at 4° C. for 5 minutes. 200 μL of 0.1% BSA in TBS was then added to each well and the plate incubated at room temperature for 1⁄2 hour. Supernatants were removed and 50 μL of a solution comprising the primary anti-phospho-AKT([…]) antibody diluted 1:250 in TBS containing 0.1% BSA was added to each well (except control/background wells). The plate was then incubated for 11⁄2 hour at room temperature. Supernatants were removed, each well was washed 3 times with 200 μL TBS, and 100 μL of a solution containing the secondary donkey anti-rabbit IgG antibody HRP-conjugate diluted 1:100 in TBS-T (TBS containing 0.1% triton). Plates were then incubated for 1 hour at room temperature. After removing the secondary antibody, each well was washed 6 times with cold TBS-T, 100 μL of ECL was added to each well, and the plate was placed on an orbital shaker for 1 minute. The plates were then read on a Wallac Victor2 1420 Multilabel HTS Counter using the luminometry window (maximum light detection is measured at […]). IC50 values were determined from the inhibition curve.

| Structure (SMILES) | pIC50 |
| --- | --- |
| COc1c(OCCCN2CCOCC2)ccc2c1N=C(NC(=O)c1ccc(N3CC[C@H](N)C3)nc1)N1CCN=C21 [Example 51, 6-[(3S)-3-aminopyrrolidin-1-yl]-N-[7-methoxy-8-(3-morpholin-4-ylpropoxy)-2,3-dihydroimidazo[1,2-c]quinazolin-5-yl]nicotinamide hydrochloride hydrate] | 6.00 to 7.00 |
| COc1c(OCCCN2CCOCC2)ccc2c1N=C(NC(=O)c1ccc(N3CC[C@@H](N)C3)nc1)N1CCN=C21 [Example 52, 6-[(3R)-3-aminopyrrolidin-1-yl]-N-[7-methoxy-8-(3-morpholin-4-ylpropoxy)-2,3-dihydroimidazo[1,2-c]quinazolin-5-yl]nicotinamide hydrochloride] | > 7.00 |
| CNCCCOc1ccc2c(c1OC)N=C(NC(=O)c1cccnc1)N1CCN=C21 [Example 58, N-{7-methoxy-8-[3-(methylamino)propoxy]-2,3-dihydroimidazo[1,2-c]quinazolin-5-yl}nicotinamide] | 6.00 to 7.00 |
| COc1c(OCCCN2CCN(C)CC2)ccc2c1N=C(NC(=O)c1cccnc1)N1CCN=C21 [Example 64, N-{7-methoxy-8-[3-(4-methylpiperazin-1-yl)propoxy]-2,3-dihydroimidazo[1,2-c]quinazolin-5-yl}nicotinamide] | 6.00 to 7.00 |
| CNC(=O)Nc1nc(C(=O)NC2=Nc3c(ccc(OCCCN4CCOCC4)c3OC)C3=NCCN23)cs1 [Example 65, N-[7-methoxy-8-(3-morpholin-4-ylpropoxy)-2,3-dihydroimidazo[1,2-c]quinazolin-5-yl]-2-{[(methylamino)carbonyl]amino}-1,3-thiazole-4-carboxamide] | < 6.00 |
| CNc1nc(C(=O)NC2=Nc3c(ccc(OCCCN4CCOCC4)c3OC)C3=NCCN23)cs1 [Example 67, N-[7-methoxy-8-(3-morpholin-4-ylpropoxy)-2,3-dihydroimidazo[1,2-c]quinazolin-5-yl]-2-(methylamino)-1,3-thiazole-4-carboxamide] | 6.00 to 7.00 |
| COc1c(OCCN2CCOCC2)ccc2c1N=C(NC(=O)c1cccnc1)N1CCN=C21 [Example 68, N-[7-methoxy-8-(2-morpholin-4-ylethoxy)-2,3-dihydroimidazo[1,2-c]quinazolin-5-yl]nicotinamide] | > 7.00 |
| COc1c(OCCN(C)C)ccc2c1N=C(NC(=O)c1sc(C)nc1C)N1CCN=C21 [Example 69, N-{8-[2-(dimethylamino)ethoxy]-7-methoxy-2,3-dihydroimidazo[1,2-c]quinazolin-5-yl}-2,4-dimethyl-1,3-thiazole-5-carboxamide] | > 7.00 |
| COc1c(OCCN(C)C)ccc2c1N=C(NC(=O)c1ccc(C)nc1)N1CCN=C21 [Example 70, N-{8-[2-(dimethylamino)ethoxy]-7-methoxy-2,3-dihydroimidazo[1,2-c]quinazolin-5-yl}-6-methylnicotinamide] | > 7.00 |
| COc1c(OCCCN2CCOCC2)ccc2c1N=C(NC(=O)c1ccc(N3CCCC3)nc1)N1CCN=C21 [Example 72, N-[7-methoxy-8-(3-morpholin-4-ylpropoxy)-2,3-dihydroimidazo[1,2-c]quinazolin-5-yl]-6-pyrrolidin-1-ylnicotinamide] | 6.00 to 7.00 |
| COc1c(OCCCN2CCCCC2)ccc2c1N=C(NC(=O)c1cccnc1)N1CCN=C21 [Example 74, N-[7-methoxy-8-(3-piperidin-1-ylpropoxy)-2,3-dihydroimidazo[1,2-c]quinazolin-5-yl]nicotinamide] | > 7.00 |
| COc1c(OCCN2CCCC2)ccc2c1N=C(NC(=O)c1cccnc1)N1CCN=C21 [Example 75, N-[7-methoxy-8-(2-pyrrolidin-1-ylethoxy)-2,3-dihydroimidazo[1,2-c]quinazolin-5-yl]nicotinamide] | > 7.00 |
| COc1c(OCCN2CCCCC2)ccc2c1N=C(NC(=O)c1cccnc1)N1CCN=C21 [Example 76, N-[7-methoxy-8-(2-piperidin-1-ylethoxy)-2,3-dihydroimidazo[1,2-c]quinazolin-5-yl]nicotinamide] | > 7.00 |
| COc1c(OCCCN2CCOCC2)ccc2c1N=C(NC(=O)c1coc(N)n1)N1CCN=C21 [Example 79, 2-amino-N-[7-methoxy-8-(3-morpholin-4-ylpropoxy)-2,3-dihydroimidazo[1,2-c]quinazolin-5-yl]-1,3-oxazole-4-carboxamide] | < 6.00 |
| CCNc1nc(C(=O)NC2=Nc3c(ccc(OCCCN4CCOCC4)c3OC)C3=NCCN23)cs1 [Example 80, 2-(ethylamino)-N-[7-methoxy-8-(3-morpholin-4-ylpropoxy)-2,3-dihydroimidazo[1,2-c]quinazolin-5-yl]-1,3-thiazole-4-carboxamide] | 6.00 to 7.00 |
| COc1c(OCCCN2CCOCC2)ccc2c1N=C(NC(=O)c1cnccn1)N1CCN=C21 [Example 81, N-[7-methoxy-8-(3-morpholin-4-ylpropoxy)-2,3-dihydroimidazo[1,2-c]quinazolin-5-yl]pyrazine-2-carboxamide] | < 6.00 |
| COc1c(OCCN)ccc2c1N=C(NC(=O)c1cccnc1)N1CCN=C21 [Example 82, N-[8-(2-aminoethoxy)-7-methoxy-2,3-dihydroimidazo[1,2-c]quinazolin-5-yl]nicotinamide] | 6.00 to 7.00 |

The remaining lines, values ahead:

| pIC50 | Structure (SMILES) |
| --- | --- |
| 6.00 to 7.00 | COc1c(OCCCN2CCOCC2)ccc2c1N=C(NC(=O)c1ccc(NCc3ccco3)nc1)N1CCN=C21 [Example 54, 6-[(2-furylmethyl)amino]-N-[7-methoxy-8-(3-morpholin-4-ylpropoxy)-2,3-dihydroimidazo[1,2-c]quinazolin-5-yl]nicotinamide] |
| 6.00 to 7.00 | COCCNc1ccc(C(=O)NC2=Nc3c(ccc(OCCCN4CCOCC4)c3OC)C3=NCCN23)cn1 [Example 55, 6-[(2-methoxyethyl)amino]-N-[7-methoxy-8-(3-morpholin-4-ylpropoxy)-2,3-dihydroimidazo[1,2-c]quinazolin-5-yl]nicotinamide] |
| > 7.00 | COc1c(OCCCN2CCOCC2)ccc2c1N=C(NC(=O)c1ccc(NC(=O)C3CC3)nc1)N1CCN=C21 [Example 60, 6-[(cyclopropylcarbonyl)amino]-N-[7-methoxy-8-(3-morpholin-4-ylpropoxy)-2,3-dihydroimidazo[1,2-c]quinazolin-5-yl]nicotinamide] |
| > 7.00 | COc1c(OCCCN2CCOCC2)ccc2c1N=C(NC(=O)c1ccc(NC(=O)C(C)C)nc1)N1CCN=C21 [Example 63, 6-(isobutyrylamino)-N-[7-methoxy-8-(3-morpholin-4-ylpropoxy)-2,3-dihydroimidazo[1,2-c]quinazolin-5-yl]nicotinamide] |
| > 7.00 | CNC(=O)Nc1ccc(C(=O)NC2=Nc3c(ccc(OCCCN4CCOCC4)c3OC)C3=NCCN23)cn1 [Example 66, N-[7-methoxy-8-(3-morpholin-4-ylpropoxy)-2,3-dihydroimidazo[1,2-c]quinazolin-5-yl]-6-{[(methylamino)carbonyl]amino}nicotinamide] |
| > 7.00 | COc1c(OCCCN2CCOCC2)ccc2c1N=C(NC(=O)c1ccc(NC(=O)NC(C)C)nc1)N1CCN=C21 [Example 71, 6-{[(isopropylamino)carbonyl]amino}-N-[7-methoxy-8-(3-morpholin-4-ylpropoxy)-2,3-dihydroimidazo[1,2-c]quinazolin-5-yl]nicotinamide] |
| 6.00 to 7.00 | COc1c(OCCCN2CCOCC2)ccc2c1N=C(NC(=O)c1ccc(N(C)C)nc1)N1CCN=C21 [Example 73, 6-(dimethylamino)-N-[7-methoxy-8-(3-morpholin-4-ylpropoxy)-2,3-dihydroimidazo[1,2-c]quinazolin-5-yl]nicotinamide] |
| > 7.00 | CCNC(=O)Nc1ccc(C(=O)NC2=Nc3c(ccc(OCCCN4CCOCC4)c3OC)C3=NCCN23)cn1 [Example 77, 6-{[(ethylamino)carbonyl]amino}-N-[7-methoxy-8-(3-morpholin-4-ylpropoxy)-2,3-dihydroimidazo[1,2-c]quinazolin-5-yl]nicotinamide] |
| 6.00 to 7.00 | COc1c(OCCCN2CCOCC2)ccc2c1N=C(NC(=O)c1ccc(F)nc1)N1CCN=C21 [Example 78, 6-fluoro-N-[7-methoxy-8-(3-morpholin-4-ylpropoxy)-2,3-dihydroimidazo[1,2-c]quinazolin-5-yl]nicotinamide] |
| > 7.00 | COc1c(OCCCN2CCOCC2)ccc2c1N=C(NC(=O)c1ccc(N)nc1)N1CCN=C21 [Example 83, 6-amino-N-[7-methoxy-8-(3-morpholin-4-ylpropoxy)-2,3-dihydroimidazo[1,2-c]quinazolin-5-yl]nicotinamide] |
| 6.00 to 7.00 | COc1c(OCCCN2CCOCC2)ccc2c1N=C(NC(=O)c1ccncc1)N1CCN=C21 [Example 84, N-[7-methoxy-8-(3-morpholin-4-ylpropoxy)-2,3-dihydroimidazo[1,2-c]quinazolin-5-yl]isonicotinamide] |
